Test results from paper PMC12081876, “Identification of PTGR2 inhibitors as a new therapeutic strategy for diabetes and obesity” (EMBO Molecular Medicine, 2025).
Values joined by “and” are separate entries in the source; they are usually repeats but may differ in a detail not shown here. Equal values may be shown once.

What was measured:
PPARγ lysine acetylation = assay: Cell-based PPARγ acetylation assay; set-up: species or system mouse; conditions: cultured adipocytes
Experimental: One day after achieving 100% confluence, 3T3-L1 cells were induced differentiation with 0.5 mM IBMX, 1 µm dexamethasone and 10 μg/mL insulin in DMEM containing 10% FBS for 2 days and maintained differentiation in DMEM supplemented with 10 μg/mL insulin and 10% FBS for 6 days. The medium was changed every 2 days. […] Cells were harvested and lysed in RIPA buffer supplemented with 1X cOmplete™, EDTA-free Protease Inhibitor Cocktail (cat. no. 04693132001, Roche) and 1X PhosSTOP™ (cat. no. 4906845001, Roche). The protein concentrations of cell lysates were measured by Bradford reagent (cat. no. BP500-0006, Bio-Rad). The protein samples were performed immunoprecipitation with magnetic beads (Protein G Mag Sepharose™, Cytiva). Briefly, 200 μg of protein samples were incubated in 500 μl of PBS buffer containing 1 μg of anti-PPARγ antibody or 1 μg of anti-rabbit IgG antibody with gentle rotation at 4 °C overnight. On the next day, PBS-washed beads were incubated with overnight mixture of protein sample and antibody at 4 °C for 1 h with gentle rotation. Then the beads were washed three times with 1000 μl of PBS and harvested with centrifugation at 4 °C and 10,000 × g for 5 min. […] Acetylation level of PPARγ was analyzed using Image J software and normalized against PPARγ.

[1] = test system: HFHSD-fed obese C57BL6/J mice; assay: Diet-induced thermogenesis; type: in vivo, mouse; conditions: for interscapular area temperature, Average: Figure 2S left panel; for interscapular area temperature, Average / inguinal area temperature, Average / rectal temperatures, Average / inguinal area temperature / interscapular area temperature / rectal temperatures: in °C; for inguinal area temperature, Average: Figure 2S middle panel; for rectal temperatures, Average: Figure 2S right panel; for inguinal area temperature / interscapular area temperature / rectal temperatures: Figure 2S, individual mice
Experimental: (§1) For the cold tolerance test, 24-week-old mice with matched average body weight from the two groups were placed individually on HFHSD in a 4 °C chamber. The rectal temperature of the mice was measured after 0, 1, 2, 3, 4, 5, 6, 12, and 18 h. For measuring diet-induced thermogenesis, 24-week-old mice were fasted overnight for 18 h. Then, we measured their rectal temperature at 0, 30, 60, 90, 120, 150, 180, and 240 min after HFHSD refeeding. The rectal and surface temperature were detected by thermal probes (Physitemp Therma TH-5, ThermoWorks, Alpine and MicroTherma 2T, ThermoWorks, Alpine, respectively).

hPTGR2 = hPTGR2 (Homo sapiens, UniProt Q8N8N7); assay: Conversion of 15-keto-PGE2 by recombinant human PTGR2 protein; type: biochemical; set-up: made in house; conditions: incubated with recombinant human PTGR2 protein
hPTGR2, sequence (Q8N8N7 whole entry): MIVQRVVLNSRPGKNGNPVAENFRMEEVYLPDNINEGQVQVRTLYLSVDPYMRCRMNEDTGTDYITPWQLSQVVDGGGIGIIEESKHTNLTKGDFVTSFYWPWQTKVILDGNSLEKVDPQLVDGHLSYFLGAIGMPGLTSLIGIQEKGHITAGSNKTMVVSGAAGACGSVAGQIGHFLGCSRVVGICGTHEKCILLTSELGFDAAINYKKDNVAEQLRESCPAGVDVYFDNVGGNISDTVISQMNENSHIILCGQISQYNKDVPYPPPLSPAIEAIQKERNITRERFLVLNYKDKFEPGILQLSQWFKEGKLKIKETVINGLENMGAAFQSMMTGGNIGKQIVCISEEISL

[2] = test system: HFHSD-fed obese C57BL6/J mice; assay: Cold tolerance test (cold-induced thermogenesis); type: in vivo, mouse; conditions: for interscapular area temperature, Average / interscapular area temperature: Figure 2T left panel; for interscapular area temperature, Average / rectal temperatures, Average: average of 12 mice; for interscapular area temperature, Average / interscapular area temperature / inguinal area temperature / rectal temperatures, Average / rectal temperatures: in °C (unit assumed); for interscapular area temperature / inguinal area temperature / rectal temperatures: individual mice; for inguinal area temperature: Figure 2T middle panel; for rectal temperatures, Average / rectal temperatures: Figure 2T right panel; for temperature, Figure 2T middle panel, Average: in °C
Experimental: as §1

CCCCCC(=O)/C=C/[C@H]1[C@H](O)CC(=O)[C@@H]1C/C=C\CCCC(=O)O [15-keto-PGE2, 15-keto-prostaglandin E2]
acetylation of the PPARγ LBD (PPARγ lysine acetylation): no altered acetylation of the PPARγ LBD
interscapular, inguinal and rectal temperatures after HFHSD feeding ([1]; 40 mg/kg/day ip, vs vehicle): higher interscapular, inguinal, and rectal temperatures after HFHSD feeding
interscapular area temperature, Average ([1]; period 0 min): 36.7067
interscapular area temperature, Average ([1]; period 30 min): 37.7933
interscapular area temperature, Average ([1]; period 60 min): 37.6333
interscapular area temperature, Average ([1]; period 120 min): 37.5133
interscapular area temperature, Average ([1]; period 180 min): 37.3533
interscapular area temperature, Average ([1]; period 240 min): 37.1267
inguinal area temperature, Average ([1]; period 0 min): 35.1463
inguinal area temperature, Average ([1]; period 30 min): 36.4001
inguinal area temperature, Average ([1]; period 60 min): 36.234
inguinal area temperature, Average ([1]; period 120 min): 35.9052
inguinal area temperature, Average ([1]; period 180 min): 35.7573
inguinal area temperature, Average ([1]; period 240 min): 35.4703
rectal temperatures, Average ([1]; period 0 min): 36.6549
rectal temperatures, Average ([1]; period 30 min): 37.7723
rectal temperatures, Average ([1]; period 60 min): 37.6257
rectal temperatures, Average ([1]; period 120 min): 37.398
rectal temperatures, Average ([1]; period 180 min): 37.3676
rectal temperatures, Average ([1]; period 240 min): 37.1984
inguinal area temperature ([1]; period 0 min): 35.4 and 35.2 and 34.79 and 34.8 and 34.56 and 35 and 35.185 and 35.735 and 36 and 34.735 and 35.25 and 35.645 and 34.88 and 34.815
interscapular area temperature ([1]; period 0 min): 36.9 and 37.4 and 36.4 and 36.8 and 36.6 and 37.8 and 35.4 and 36.2 and 37
rectal temperatures ([1]; period 0 min): 36.805 and 37.06 and 36.54 and 36.445
inguinal area temperature ([1]; period 30 min): 36.955 and 36.815 and 36.705 and 36.42 and 36.0964 and 35.905 and 36.6 and 35.865 and 35.975 and 36.115 and 36.825 and 36.785 and 36.43 and 36.095 and 36.415
interscapular area temperature ([1]; period 30 min): 38.1 and 38.2 and 37.6 and 37.2 and 37.5 and 37.7 and 37.9 and 37.8
rectal temperatures ([1]; period 30 min): 38.255 and 38.275 and 37.755 and 37.72
inguinal area temperature ([1]; period 60 min): 36.755 and 36.7 and 36.085 and 36.255 and 36.2 and 35.5 and 35.9 and 35.67 and 36.1 and 36.955 and 36.3 and 36.545 and 36.31 and 35.98
interscapular area temperature ([1]; period 60 min): 38 and 38.3 and 37.8 and 37.5 and 37.7 and 37.4 and 37.6 and 37.2
rectal temperatures ([1]; period 60 min): 38.085 and 37.94 and 37.88 and 37.79
inguinal area temperature ([1]; period 120 min): 36.81 and 36.5 and 36.135 and 35.755 and 36.1679 and 35.38 and 35.6 and 35.29 and 35.4 and 36.16 and 36.2 and 35.9 and 36.075 and 35.355 and 35.85
interscapular area temperature ([1]; period 120 min): 37.7 and 38.2 and 37.9 and 37.6 and 37.2 and 37.1 and 37.5 and 37.4 and 37.3
rectal temperatures ([1]; period 120 min): 37.95 and 37.965 and 37.615
inguinal area temperature ([1]; period 180 min): 36.105 and 36.3 and 36.27 and 35.585 and 35.8 and 35.3 and 35.4 and 35.7 and 36.1 and 35.765 and 35.535
interscapular area temperature ([1]; period 180 min): 37.5 and 38.4 and 37.6 and 37.4 and 36.5 and 37.2 and 37.1 and 36.9 and 37 and 37.8
rectal temperatures ([1]; period 180 min): 37.665 and 37.81 and 37.52
inguinal area temperature ([1]; period 240 min): 35.995 and 36.065 and 35.575 and 35.82 and 35.715 and 35.26 and 35.2 and 35.6 and 36.2 and 35.1 and 35.12 and 34.905
interscapular area temperature ([1]; period 240 min): 37.1 and 37.5 and 37 and 37.2 and 37.3 and 36.2 and 36.8 and 37.4 and 36.6
rectal temperatures ([1]; period 240 min): 37.705 and 37.57 and 37.21
15-keto-PGE2 converted into 13,14-dihydro-15-keto-PGE2 (hPTGR2): 99.83%
interscapular, inguinal and rectal temperatures during cold test ([2]; 40 mg/kg/day ip, vs vehicle): higher interscapular, inguinal, and rectal temperatures than vehicle controls during prolonged cold tests
interscapular area temperature, Average ([2]; period 0 hr): 38.275
interscapular area temperature ([2]; period 0 hr): 37.4 and 37.9 and 38.2 and 38.1 and 38.9
interscapular area temperature, Average ([2]; period 1 hr): 37.6917
interscapular area temperature ([2]; period 1 hr): 37.1 and 37.5 and 37.2 and 37.9 and 37.4
interscapular area temperature, Average ([2]; period 2 hr): 37.3583
interscapular area temperature ([2]; period 2 hr): 37.4 and 37.2 and 36.9 and 37.8 and 37.6 and 36.4
interscapular area temperature, Average ([2]; period 3 hr): 37.0083
interscapular area temperature ([2]; period 3 hr): 37.2 and 37.1 and 36.5 and 37.3 and 37.5 and 36.4
interscapular area temperature, Average ([2]; period 4 hr): 37.0083
interscapular area temperature ([2]; period 4 hr): 37 and 36.8 and 37.6 and 37.3 and 36.2
interscapular area temperature, Average ([2]; period 5 hr): 36.8917
interscapular area temperature ([2]; period 5 hr): 36.5 and 37 and 36.7 and 36.9 and 37.1
interscapular area temperature, Average ([2]; period 6 hr): 36.7583
interscapular area temperature ([2]; period 6 hr): 36.2 and 36.3 and 36.9 and 37.9 and 37
interscapular area temperature, Average ([2]; period 12 hr): 35.6833
interscapular area temperature ([2]; period 12 hr): 36.2 and 37.5 and 34.9 and 35.7 and 35.4
interscapular area temperature, Average ([2]; period 18 hr): 34.8333
interscapular area temperature ([2]; period 18 hr): 36.3 and 35.5 and 33.6 and 33.9 and 35.7
inguinal area temperature ([2]; period 0 hr): 36.2 and 36.9 and 37.2
inguinal area temperature ([2]; period 1 hr): 36.2 and 36.8
inguinal area temperature ([2]; period 2 hr): 35.8 and 34.9
inguinal area temperature ([2]; period 3 hr): 35.5 and 34.7
inguinal area temperature ([2]; period 4 hr): 35 and 34.8
inguinal area temperature ([2]; period 5 hr): 34.9 and 34.7
inguinal area temperature ([2]; period 6 hr): 35.2 and 34.9
inguinal area temperature ([2]; period 12 hr): 32.9 and 34.1
inguinal area temperature ([2]; period 18 hr): 33.2 and 33.7
rectal temperatures, Average ([2]; period 0 hr): 37.9667
rectal temperatures ([2]; period 0 hr): 37.6 and 38.1 and 38.5 and 37.9 and 36.3 and 38.3 and 38
rectal temperatures, Average ([2]; period 1 hr): 37.1667
rectal temperatures ([2]; period 1 hr): 37 and 37.2 and 37.1 and 37.3 and 36.6 and 37.4 and 37.8 and 37.6
rectal temperatures, Average ([2]; period 2 hr): 36.6917
rectal temperatures ([2]; period 2 hr): 37.4 and 35.2 and 36.3 and 37 and 37.2 and 36.8 and 36.6 and 36.9 and 36.1 and 36.4
rectal temperatures, Average ([2]; period 3 hr): 36.45
rectal temperatures ([2]; period 3 hr): 36.7 and 36 and 36.6 and 36.9 and 35.8 and 37.5 and 36.3 and 36.2 and 36.1 and 36.4
rectal temperatures, Average ([2]; period 4 hr): 36.45
rectal temperatures ([2]; period 4 hr): 37 and 36.2 and 36.8 and 37.2 and 36.7 and 36 and 35.7 and 36.4
rectal temperatures, Average ([2]; period 5 hr): 36.4167
rectal temperatures ([2]; period 5 hr): 37.6 and 36.4 and 36.3 and 36.1 and 36.5 and 36.7 and 35.8 and 36.2
rectal temperatures, Average ([2]; period 6 hr): 36.4167
rectal temperatures ([2]; period 6 hr): 36.8 and 36.6 and 36.4 and 35.6 and 37.3 and 36.1 and 36 and 35.5
rectal temperatures, Average ([2]; period 12 hr): 35.6917
rectal temperatures ([2]; period 12 hr): 35.9 and 37.5 and 34.2 and 35.3 and 37.6 and 34.5 and 35.2 and 36.3 and 37.9
rectal temperatures, Average ([2]; period 18 hr): 34.025
rectal temperatures ([2]; period 18 hr): 35.7 and 34.9 and 33 and 33.1 and 34.8 and 34.6 and 32 and 34.5 and 33.4 and 33.6 and 34.2
temperature, Figure 2T middle panel, Average ([2]; time 0): 36.2
temperature, Figure 2T middle panel, Average ([2]; time 1): 36.0083
temperature, Figure 2T middle panel, Average ([2]; time 2): 35.325
temperature, Figure 2T middle panel, Average ([2]; time 3): 35.0083
temperature, Figure 2T middle panel, Average ([2]; time 4): 34.8083
temperature, Figure 2T middle panel, Average ([2]; time 5): 34.6417
temperature, Figure 2T middle panel, Average ([2]; time 6): 34.6417
temperature, Figure 2T middle panel, Average ([2]; time 12): 34.375
temperature, Figure 2T middle panel, Average ([2]; time 18): 33.2583
